T/C data for 19 compounds are collected here from PubChem BioAssay AID276 (DTP/NCI, 2004).

Several values for one entry are separate records, joined by “and”; a condition that tells them apart may be missing. Equal values may be shown once. Inconclusive results and toxic doses are left out.

The subject of this test is B6C3F1 mice, Lewis lung carcinoma iv, survival T/C. As to the kind of experiment: NCI In Vivo Anticancer Drug Screen. Data for tumor model Lewis Lung Carcinoma (intravenous) in B6C3F1 mice. The following applies: endpoint: median survival time, schedule: Q01DX009 (ip), higher = longer survival. In a few lines:
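Mice carrying transplanted tumors received test compound; survival in the treated group was divided by that of the vehicle-treated control group to give the T/C value.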

Where [1] appears, read: dose: 12.5 mg/kg/injection, vehicle: saline.
The mark [2] stands for this setting: dose: 25.0 mg/kg/injection, vehicle: saline.
Where [3] appears, read: dose: 50.0 mg/kg/injection, vehicle: saline.
The mark [4] stands for this setting: dose: 100.0 mg/kg/injection, vehicle: saline.
The mark [5] stands for this setting: dose: 200.0 mg/kg/injection, vehicle: saline.
The mark [6] stands for this setting: dose: 400.0 mg/kg/injection, vehicle: saline.
The mark [7] stands for this setting: dose: 6.25 mg/kg/injection, vehicle: Klucel (hydroxypropylcellulose) (HPC).
Setting [8] is: dose: 12.5 mg/kg/injection, vehicle: Klucel (hydroxypropylcellulose) (HPC).
Setting [9] is: dose: 25.0 mg/kg/injection, vehicle: Klucel (hydroxypropylcellulose) (HPC).
Where [10] appears, read: dose: 50.0 mg/kg/injection, vehicle: Klucel (hydroxypropylcellulose) (HPC).
Setting [11] is: dose: 100.0 mg/kg/injection, vehicle: Klucel (hydroxypropylcellulose) (HPC).
[12] abbreviates: dose: 25.0 mg/kg/injection, vehicle: water.
Where [13] appears, read: dose: 50.0 mg/kg/injection, vehicle: water.
Where [14] appears, read: dose: 100.0 mg/kg/injection, vehicle: water.
Where [15] appears, read: dose: 200.0 mg/kg/injection, vehicle: water.
Setting [16] is: dose: 400.0 mg/kg/injection, vehicle: water.
Setting [17] is: dose: 400.0 mg/kg/injection, vehicle: Klucel (hydroxypropylcellulose) (HPC).
Where [18] appears, read: dose: 0.5 mg/kg/injection, vehicle: saline.
[19] abbreviates: dose: 1.0 mg/kg/injection, vehicle: saline.
Where [20] appears, read: dose: 2.0 mg/kg/injection, vehicle: saline.

Regarding `CC(C)C(N)C(=O)Nc1nncs1` (stereo unspecified), the T/C is, setting by setting: under setting [1], 108 % of control; under setting [2], 104 % of control; under setting [3], 114 % of control and 121 % of control; (dose: 50.62 mg/kg/injection, vehicle: saline) 103 % of control; (dose: 50.62 mg/kg/injection, vehicle: suspension in saline) 110 % of control; (dose: 67.5 mg/kg/injection, vehicle: saline) 103 % of control. In addition, the T/C is, setting by setting: (dose: 67.5 mg/kg/injection, vehicle: suspension in saline) 124 % of control; (dose: 90.0 mg/kg/injection, vehicle: saline) 100 % of control; under setting [4], 165 % of control and 245 % of control; (dose: 120.0 mg/kg/injection, vehicle: saline) 112 % of control; (dose: 120.0 mg/kg/injection, vehicle: suspension in saline) 157 % of control; (dose: 160.0 mg/kg/injection, vehicle: saline) 117 % of control.
In the case of `O=[N+]([O-])c1nccn1CC(O)CO` (stereo unspecified), the T/C is 100 % of control under setting [1]; 105 % of control under setting [2]; 104 % of control under setting [3]; 102 % of control under setting [4]; 106 % of control under setting [5]; 107 % of control under setting [6].
With `CN(C)[C@@H]1C(=O)C(C(N)=O)=C(O)[C@@]2(O)C(=O)C3=C(O)c4c(O)ccc(Cl)c4[C@@](C)(O)[C@H]3C[C@@H]12`, the T/C is 100 % of control under setting [1]; 100 % of control under setting [2]; 109 % of control under setting [3]; 113 % of control under setting [4]; 101 % of control under setting [5].
`CN(C)c1ncnc2c1ncn2C1OC(CO)C(N)C1O` (stereo unspecified): the T/C under setting [2] is 112 % of control.
For `CCCCN(CCCC)C(Cl)=Nc1ccccc1`, the T/C under setting [7] was 106 % of control; the T/C under setting [8] was 107 % of control; the T/C under setting [9] was 94 % of control; the T/C under setting [10] was 96 % of control; the T/C under setting [11] was 98 % of control.
Consider `OC1OC2COC(c3ccccc3)OC2C(O)C1O` (stereo unspecified), for which the T/C is 101 % of control under setting [12]; 99 % of control under setting [13]; 98 % of control under setting [14]; 101 % of control under setting [15]; 99 % of control under setting [16]; 93 % of control (dose: 800.0 mg/kg/injection, vehicle: water).
In the case of `CN(C)c1ccc2c(SCC(=O)OCC(=O)[C@@]3(O)CC[C@H]4[C@@H]5CCC6=CC(=O)C=C[C@]6(C)[C@H]5C(=O)C[C@@]43C)c3ccc(N(C)C)cc3nc2c1`, the T/C is, setting by setting: (dose: 200.0 mg/kg/injection, vehicle: Klucel (hydroxypropylcellulose) (HPC)) 94 % of control; under setting [17], 99 % of control; (dose: 800.0 mg/kg/injection, vehicle: Klucel (hydroxypropylcellulose) (HPC)) 101 % of control.
In the case of `CCCCCCCCCCCCCCCCP(=O)(OCCOCCCCCC)OCCOCCCCCC`, the T/C by setting is: (dose: 6.25 mg/kg/injection, vehicle: suspension in saline) 100 % of control; (dose: 12.5 mg/kg/injection, vehicle: suspension in saline) 100 % of control; (dose: 25.0 mg/kg/injection, vehicle: suspension in saline) 107 % of control; (dose: 50.0 mg/kg/injection, vehicle: suspension in saline) 102 % of control.
As for `O=C(NO)c1cc(O)c(O)c(O)c1`, the T/C was 100 % of control under setting [12]; 98 % of control under setting [13]; 100 % of control under setting [14]; 110 % of control under setting [15]; 93 % of control under setting [16].
Consider `O=C1c2c(O)ccc(O)c2C(=O)c2c(NCCNCCO)ccc(NCCNCCO)c21`, for which the T/C runs as follows: (dose: 0.12 mg/kg/injection, vehicle: saline) 94 % of control; (dose: 0.12 mg/kg/injection, vehicle: water) 104 % of control; (dose: 0.25 mg/kg/injection, vehicle: saline) 101 % of control; (dose: 0.25 mg/kg/injection, vehicle: water) 106 % of control; under setting [18], 100 % of control; (dose: 0.5 mg/kg/injection, vehicle: water) 110 % of control. In addition, the T/C reads like this: under setting [19], 123 % of control; (dose: 1.0 mg/kg/injection, vehicle: water) 120 % of control.
As for `CCOC(=O)C1(c2ccccc2)C(=O)Oc2ccccc21` (stereo unspecified), the T/C reads like this: (dose: 12.5 mg/kg/injection, vehicle: saline with Tween-80) 97 % of control; (dose: 25.0 mg/kg/injection, vehicle: saline with Tween-80) 97 % of control; (dose: 50.0 mg/kg/injection, vehicle: saline with Tween-80) 96 % of control; (dose: 100.0 mg/kg/injection, vehicle: saline with Tween-80) 97 % of control; (dose: 200.0 mg/kg/injection, vehicle: saline with Tween-80) 99 % of control; (dose: 400.0 mg/kg/injection, vehicle: saline with Tween-80) 99 % of control.
In the case of `O=C1C(NCC(O)CO)=C(N2CC2)C(=O)C(NCC(O)CO)=C1N1CC1` (stereo unspecified), the T/C runs as follows: under setting [18], 100 % of control; under setting [19], 98 % of control; under setting [20], 108 % of control; (dose: 4.0 mg/kg/injection, vehicle: saline) 116 % of control.
Take `C(C#CCN1CCOCC1)#CCN1CCOCC1`: the T/C is, setting by setting: under setting [7], 108 % of control; under setting [8], 101 % of control; under setting [9], 102 % of control; under setting [10], 100 % of control; under setting [11], 102 % of control; under setting [17], 106 % of control.
As for `N=C(N)Sc1cc(O)ccc1O`, the T/C by setting is: under setting [1], 109 % of control; under setting [2], 95 % of control; under setting [3], 104 % of control; under setting [4], 99 % of control; under setting [5], 99 % of control.
For the compound `COc1ccc(C[C@H](N)C(=O)NC2C(CO)OC(n3cnc4c(N(C)C)ncnc43)C2O)cc1` (stereo partly specified), the T/C is 99 % of control (dose: 5.0 mg/kg/injection, vehicle: saline); 104 % of control (dose: 10.0 mg/kg/injection, vehicle: saline); 114 % of control (dose: 20.0 mg/kg/injection, vehicle: saline); 109 % of control (dose: 40.0 mg/kg/injection, vehicle: saline); 114 % of control (dose: 80.0 mg/kg/injection, vehicle: saline).
On to `CC(=O)NCCCCCCNC(C)=O`, for which the T/C is 92 % of control and 96 % of control under setting [2]; 90 % of control and 92 % of control under setting [3]; 88 % of control and 106 % of control under setting [4]; 100 % of control and 102 % of control under setting [5]; 96 % of control and 103 % of control under setting [6]; 102 % of control and 105 % of control (dose: 800.0 mg/kg/injection, vehicle: saline).
Consider `N=c1ccn2c(n1)OC1C(O)C(CO)OC12` (stereo unspecified), for which the T/C runs as follows: under setting [2], 101 % of control; under setting [3], 102 % of control; under setting [4], 107 % of control.
Consider `Nc1nc(=S)c2[nH]cnc2[nH]1`, for which the T/C was 104 % of control under setting [18] and 114 % of control under setting [20].
Regarding `NC1=NC(=O)N2CC12` (stereo unspecified), the T/C is, setting by setting: under setting [1], 110 % of control; under setting [2], 110 % of control; under setting [4], 110 % of control; under setting [5], 109 % of control.
